Measurements reported in patent US8415340B2, “Triazine kinase inhibitors” (Bristol-Myers Squibb Company, priority 2007, dated 2013).

Target: IGF1-receptor (Homo sapiens, UniProt P08069)
Assay: IGF1-Receptor Tyrosine Kinase Assay
Type: biochemical
Details: in vitro kinase; ATP 25 μM; read-out: IGF1R kinase IC50
Method: D. IGF1-Receptor Tyrosine Kinase Assay
The assays were performed in U-bottom 384-well plates. The final assay volume was 30 μl prepared from 15 μl additions of enzyme and substrates (fluoresceinated IGF1R substrate peptide and ATP) and test compounds in assay buffer (100 mM HEPES pH 7.4, 10 mM MnCl2, 0.015% Brij35 and 4 mM DTT). The reaction was initiated by the combination of IGF1-receptor with substrates and test compounds. The reaction was incubated at room temperature for 60 min. and terminated by adding 30 μl of 35 mM EDTA to each sample. The reaction mixture was analyzed on the Caliper LabChip 3000 by electrophoretic separation of the fluorescent substrate and phosphorylated product. Inhibition data were calculated by comparison to no enzyme control reactions for 100% inhibition and vehicle-only reactions for 0% inhibition. The final concentration of reagents in the assays is ATP, 25 μM; FL-peptide, 1.5 μM; IGF1-Receptor, 14 nM; and DMSO, 1.6%. Dose response curves were generated to determine the concentration required inhibiting 50% of kinase activity (IC50). Compounds were dissolved at 10 mM in dimethylsulfoxide (DMSO) and evaluated at eleven concentrations, each in duplicate. IC50 values were derived by non-linear regression analysis.

Sequence of IGF1-receptor (P08069 31-1367): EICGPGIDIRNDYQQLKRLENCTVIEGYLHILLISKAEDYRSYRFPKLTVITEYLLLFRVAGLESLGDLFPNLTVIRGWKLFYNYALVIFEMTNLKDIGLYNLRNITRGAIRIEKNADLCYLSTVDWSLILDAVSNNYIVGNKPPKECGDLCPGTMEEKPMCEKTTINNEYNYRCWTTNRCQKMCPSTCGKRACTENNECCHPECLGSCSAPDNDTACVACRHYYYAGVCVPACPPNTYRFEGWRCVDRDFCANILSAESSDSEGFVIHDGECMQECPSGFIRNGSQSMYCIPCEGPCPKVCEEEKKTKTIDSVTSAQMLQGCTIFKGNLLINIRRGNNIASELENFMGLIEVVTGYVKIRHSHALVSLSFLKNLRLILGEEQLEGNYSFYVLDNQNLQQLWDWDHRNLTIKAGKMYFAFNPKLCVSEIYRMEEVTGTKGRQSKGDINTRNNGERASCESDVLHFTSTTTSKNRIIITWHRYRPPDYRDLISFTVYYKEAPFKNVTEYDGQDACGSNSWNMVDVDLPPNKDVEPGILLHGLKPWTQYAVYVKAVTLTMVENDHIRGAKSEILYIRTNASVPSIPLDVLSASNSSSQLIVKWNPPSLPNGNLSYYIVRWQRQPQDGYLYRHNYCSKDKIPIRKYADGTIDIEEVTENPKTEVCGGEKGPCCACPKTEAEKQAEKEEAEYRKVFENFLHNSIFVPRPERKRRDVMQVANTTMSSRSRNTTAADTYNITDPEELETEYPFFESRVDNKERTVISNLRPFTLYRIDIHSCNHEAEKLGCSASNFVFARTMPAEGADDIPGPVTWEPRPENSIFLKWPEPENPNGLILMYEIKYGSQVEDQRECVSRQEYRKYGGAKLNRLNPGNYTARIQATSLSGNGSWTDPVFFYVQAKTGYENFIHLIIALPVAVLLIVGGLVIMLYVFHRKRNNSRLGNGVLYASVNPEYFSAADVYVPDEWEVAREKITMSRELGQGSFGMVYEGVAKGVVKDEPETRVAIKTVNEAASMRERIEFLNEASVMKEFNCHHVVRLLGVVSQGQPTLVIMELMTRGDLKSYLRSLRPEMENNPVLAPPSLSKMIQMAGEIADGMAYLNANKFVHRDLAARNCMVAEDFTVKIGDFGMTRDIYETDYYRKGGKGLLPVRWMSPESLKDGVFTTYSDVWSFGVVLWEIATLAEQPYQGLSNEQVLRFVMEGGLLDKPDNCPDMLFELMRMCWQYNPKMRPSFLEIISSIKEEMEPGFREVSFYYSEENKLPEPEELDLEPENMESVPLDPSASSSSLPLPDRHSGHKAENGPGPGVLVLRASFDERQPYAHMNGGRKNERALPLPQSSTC

| SMILES | IC50 [nM] |
| --- | --- |
| COc1nc(Nc2cc(C3CC3)[nH]n2)nc(N2C[C@@H](OC)C[C@H]2C(=O)Nc2cnccn2)n1 [Example 20, (2S,4S)-1-(4-(5-Cyclopropyl-1H-pyrazol-3-ylamino)-6-methoxy-1,3,5-triazin-2-yl)-4-methoxy-N-(pyrazin-2-yl)pyrrolidine-2-carboxamide] | 7 |
| COCCN1CCN(c2nc(Nc3cc(C4CC4)n[nH]3)nc(N3C[C@@H](OC)C[C@H]3C(=O)Nc3cnccn3)n2)CC1 [Example 25, (2S,4S)-1-(4-(3-Cyclopropyl-1H-pyrazol-5-ylamino)-6-(4-(2-methoxyethyl)piperazin-1-yl)-1,3,5-triazin-2-yl)-4-methoxy-N-(pyrazin-2-yl)pyrrolidine-2-carboxamide] | 3 |
| CO[C@H]1C[C@@H](C(=O)Nc2cnccn2)N(c2nc(NCCN(C)C)nc(Nc3cc(C4CC4)n[nH]3)n2)C1 [Example 27, (2S,4S)-1-(4-(3-Cyclopropyl-1H-pyrazol-5-ylamino)-6-(2-(dimethylamino)ethylamino)-1,3,5-triazin-2-yl)-4-methoxy-N-(pyrazin-2-yl)pyrrolidine-2-carboxamide] | 7 |
| CO[C@H]1C[C@@H](C(=O)Nc2cnccn2)N(c2nc(Nc3cc(C4CC4)[nH]n3)nc(N3CCSCC3)n2)C1 [Example 34, (2S,4S)-1-(4-(5-Cyclopropyl-1H-pyrazol-3-ylamino)-6-thiomorpholino-1,3,5-triazin-2-yl)-4-methoxy-N-(pyrazin-2-yl)pyrrolidine-2-carboxamide] | 3 |
| CO[C@H]1C[C@@H](C(=O)Nc2cnccn2)N(c2nc(Nc3cc(C4CC4)n[nH]3)nc(N3CCN(S(C)(=O)=O)CC3)n2)C1 [Example 46, (2S,4S)-1-(4-(3-Cyclopropyl-1H-pyrazol-5-ylamino)-6-(4-(methylsulfonyl)piperazin-1-yl)-1,3,5-triazin-2-yl)-4-methoxy-N-(pyrazin-2-yl)pyrrolidine-2-carboxamide] | 3 |
| CO[C@H]1C[C@@H](C(=O)Nc2cnccn2)N(c2nc(Nc3cc(C4CC4)[nH]n3)nc(-n3nc(C4CC4)cc3N)n2)C1 [Example 58, (2S,4S)-1-(4-(5-Amino-3-cyclopropyl-1H-pyrazol-1-yl)-6-(5-cyclopropyl-1H-pyrazol-3-ylamino)-1,3,5-triazin-2-yl)-4-methoxy-N-(pyrazin-2-yl)pyrrolidine-2-carboxamide] | 95 |
| CO[C@H]1C[C@@H](C(=O)Nc2ccc(F)nc2)N(c2nc(Nc3cc(C4CC4)n[nH]3)nc(N3CCOCC3)n2)C1 [Example 62, (2S,4S)-1-(4-(3-Cyclopropyl-1H-pyrazol-5-ylamino)-6-morpholino-1,3,5-triazin-2-yl)-N-(6-fluoropyridin-3-yl)-4-methoxypyrrolidine-2-carboxamide] | 2 |
| O=C(N[C@H]1CCCN(c2nc(Nc3cc(C4CC4)n[nH]3)nc(N3C[C@H](F)C[C@H]3C(=O)Nc3cnccn3)n2)C1)C1CC1 [Example 72, (2S,4R)-1-(4-((S)-3-(Cyclopropanecarboxamido)piperidin-1-yl)-6-(3-cyclopropyl-1H-pyrazol-5-ylamino)-1,3,5-triazin-2-yl)-4-fluoro-N-(pyrazin-2-yl)pyrrolidine-2-carboxamide] | 56 |
| O=C(Nc1ncns1)[C@@H]1C[C@@H](F)CN1c1nc(Nc2cc(C3CC3)n[nH]2)nc(N2CCOCC2)n1 [Example 82, (2S,4R)-1-(4-(3-Cyclopropyl-1H-pyrazol-5-ylamino)-6-morpholino-1,3,5-triazin-2-yl)-4-fluoro-N-(1,2,4-thiadiazol-5-yl)pyrrolidine-2-carboxamide] | 7 |
| COCCN1CCN(c2nc(Nc3cc(C4CC4)n[nH]3)nc(N3C[C@@H](O)C[C@H]3C(=O)Nc3cnccn3)n2)CC1 [Example 87, (2S,4S)-1-(4-(3-Cyclopropyl-1H-pyrazol-5-ylamino)-6-(4-(2-methoxyethyl)piperazin-1-yl)-1,3,5-triazin-2-yl)-4-hydroxy-N-(pyrazin-2-yl)pyrrolidine-2-carboxamide] | 2 |
